Test [1] has as its target α-Glucosidase (Saccharomyces cerevisiae). Kind of test: IC50 determination, AGH enzyme inhibition assay (pNPG substrate). It counts as biochemical. Conditions: 15 min preincubation at 37 °C, 0.36 mM pNPG, mean ± SEM of three experiments. On the procedure: Steady-state kinetic studies were carried out on a Multiskan FC Devices. The AGH activity was assayed by adding 50 μL of AGH solution to 300 μL of substrate solution (pNPG was used as the substrate) in 0.1 M PBS buffer (pH 6.8), followed by incubation at 37 °C for 30 min. The AGH activity was measured by monitoring an increase of the p-nitrophenol (pNP) released from substrate pNPG in absorbance at 405 nm.
AGH was preincubated with two tea polyphenols for 15 min at 37 °C, respectively. The reaction was started by the addition of the pNPG (0.36 mM final concentration), and the initial rate was measured by ultraviolet (UV) detector. Linearity of UV response was confirmed with correlation coefficients (R^2) of > 0.99. Data were the means ± standard error of the mean (SEM) of three independent experiments, and were fitted using standard four-parameter logistic models to measure IC50 values by JMP software (version 11.0.0, SAS Institute, Inc., Cary, NC, USA).

Test [2] deals with α-Glucosidase (Saccharomyces cerevisiae). In words: Binding kinetics by reaction progress curve analysis. It counts as biochemical. The following applies: for binding mechanism: kobs versus concentration hyperbolic; for Dissociation Half-Life: ln2 divided by koff (progress curve); for time dependence of inhibition: preincubation and progress curves; for Ki: read-out: Ki* (final equilibrium dissociation constant, true affinity). The source says: Progress curves were fitted to the equation (Equation (1)) described by Williams and Morrison to calculate kobs values for slow binding (i.e., time-dependent) inhibition. (1) A=vs×t+(vi−vs)(1−e^−kobs×t/kobs)+A0 where A is the absorbance; vi and vs are initial and steady-state velocities (expressed in A/time), respectively; t is time; kobs is the pseudo first order rate constant for the approach to steady-state and A0 is the initial blank absorbance at 405 nm. In order to determine inhibition modality and calculate inhibition constants obtained, steady-state rates from progress curves were subsequently fitted to the following steady-state velocity equation (Equation (2)) described by Robert A. Copeland [34] for noncompetitive inhibition:(2) v=vmax×[S]/[S]×(1+[I]/αKi)+Km×(1+[I]/Ki) where v is velocity; Vmax refers to the maximum velocity; [I] is concentration of inhibition; Km refers to Michaelis constant; α is constant.
(3) kobs=k4+(k3×[I]/Kiapp+[I]) (4) kon=k3/Ki (5) koff=k4 (6) Ki*=Ki/1+k3/k4 where k3 is forward enzyme isomerization rate constant; k4 is reverse enzyme isomerization rate constant, Ki^app is the apparent value of the Ki for the initial encounter complex. Ki was estimated using the following Cheng-prusoff equation (Equation (7)) as described previously for noncompetitive inhibition:(7) Kiapp=Ki×(1+[S]/Km)/((1+α)×([S]/Km))

For test [3] the test system is unchanged. Kind of test: Surface plasmon resonance (SPR) binding kinetics, immobilized AGH. The following applies: 25 °C, 1:1 Langmuir model. On the procedure: Surface plasmon resonance (SPR) experiments were performed to measure the BK parameters between compounds and AGH. After the activation of the surface using NHS and EDC (1:1, v/v), the AGH was immobilized on a CM5 sensor chip (GE healthcare) by using standard amine-coupling at 25 °C with running buffer PBS-P (20 mM phosphate buffer, […], 0.05% surfactant P-20, pH 7.4). The AGH concentration was fixed at 50 ng/µL and the immobilization level of AGH was about 8000 RU (response unit, 1 RU response value is roughly equivalent to 1 pg/mm^2 change of the concentration of the bound substance on the chip surface). After coupling, unreacted NHS ester groups were blocked with ethanolamine. Different concentrations of compounds containing 5% DMSO were serially injected into the channel to evaluate the BK parameters. A reference channel was only activated and blocked to eliminate compound unspecific binding to the surface of the chip. An extra wash with 50% DMSO was added to remove the last remaining sample in the pipeline. The on-rates and the off-rates of the compounds were obtained by fitting the data sets to 1:1 Langmuir binding model using the Biacore T200 Evaluation Software (GE Healthcare).
In general terms: SPR reads the build-up and loss of mass on a sensor chip optically.

Test [4] shares this test system. In words: Steady-state velocity fit and double reciprocal plot (inhibition type). It counts as biochemical. Conditions: for constant α: Equation (2), noncompetitive inhibition; for type of inhibition: double reciprocal plot; for Ki: steady-state velocity fit, read-out: free AGH binding inhibition constant (Ki). The protocol: The reaction progress of AGH inhibition by ECG was measured under the pseudo-first-order conditions ([I], initiated by the addition of 50 μL AGH to 300 μL of a mixture of tested compound and substrate and monitor the liberation of free pNP at 405 nm. The final pNPG concentrations ranged from 0.18 to 1.44 mM. The compound investigated concentrations were 0, 0.7, 1.4, 2.8, 5.6, 11.2 μM. The reading was recorded every 20 s during 4000 s and blank absorbance values were subtracted from the data before subsequent calculations. Similar experiments were performed with EGCG to measure its reaction progress curve. Progress curves were fitted to the equation (Equation (1)) described by Williams and Morrison to calculate kobs values for slow binding (i.e., time-dependent) inhibition. (1) A=vs×t+(vi−vs)(1−e^−kobs×t/kobs)+A0 where A is the absorbance; vi and vs are initial and steady-state velocities (expressed in A/time), respectively; t is time; kobs is the pseudo first order rate constant for the approach to steady-state and A0 is the initial blank absorbance at 405 nm. In order to determine inhibition modality and calculate inhibition constants obtained, steady-state rates from progress curves were subsequently fitted to the following steady-state velocity equation (Equation (2)) described by Robert A. Copeland [34] for noncompetitive inhibition:(2) v=vmax×[S]/[S]×(1+[I]/αKi)+Km×(1+[I]/Ki) where v is velocity; Vmax refers to the maximum velocity; [I] is concentration of inhibition; Km refers to Michaelis constant; α is constant.
The inhibition type of the tested compounds against AGH was determined using a double reciprocal plot of 1/v as a function of 1/[S] in terms of intersecting lines converging to the location of the y-axis and the x-axis.

Test [5] has the same test system. In words: Mutual exclusivity study (Yonetani-Theorell). It counts as biochemical. The following applies: combination of ECG with EGCG, Equation (8). On the procedure:
Mutual exclusivity studies were performed by measuring the reaction velocity at several fixed concentrations of one investigated compound while titrating another tested compound with various concentrations, and data were evaluated by the method (Equation (8)) proposed by Yonetanii and Theorell that yielded a value of β for different noncompetitive inhibition by nonlinear regression analysis. (8) 1/vij=1/v0×(1+[I]/Ki+[J]/Kj+[I][J]/βKiKj) where vij is the enzyme velocity in the presence of both compounds at concentrations [I] and [J]; v0 is the velocity in the absence of compound; β is an interaction constant that defines the degree to which binding of one compound perturbs the affinity of the enzyme for the second compound.

Test [6] has the same test system. In words: Off-rate by rapid dilution approach. It counts as biochemical.
Protocol: Among these BK parameters, the off-rate value of acarbose was determined by applying the rapid dilution approaches, which were readily available from the references [35, 49].
[7] abbreviates: progress curve analysis, two-step induced-fit model.

The structures appear in SMILES notation.

In test [1], `O=C(O[C@@H]1Cc2c(O)cc(O)cc2O[C@@H]1c1ccc(O)c(O)c1)c1cc(O)c(O)c(O)c1` [ECG, Epicatechin gallate] had an IC50 of 1500 ± 300 nM. In test [2], the binding mechanism entry is “two-step induced-fit mechanism”, the “Dissociation Half-Life” value is 7.2 min and the “time dependence of inhibition” value is reported as “slow binding inhibitor”. Moreover, in test [2] (setting [7]), the koff is given as 1.6 ± 0.3 10^−3 s^−1 and the kon is given as 0.2 ± 0.05 10^3 M^−1s^−1. The inhibition constant (Ki) in test [2] (progress curve analysis) amounted to 1000 ± 300 nM. In test [3], the koff was found to be 0.0073 s⁻¹ and the kon is 6300 M⁻¹ s⁻¹. Also, in test [4], the “constant α” value was found to be 1.3, the type of inhibition result is listed as “noncompetitive inhibitor” and the Ki worked out at 1100 nM. In addition, the “β-value (interaction constant)” value in test [5] amounted to 4133197.
Consider `O=C(O[C@@H]1Cc2c(O)cc(O)cc2O[C@@H]1c1cc(O)c(O)c(O)c1)c1cc(O)c(O)c(O)c1` [EGCG, epigallocatechin gallate], for which half-maximal inhibition in test [1] (IC50) required 410 ± 100 nM. Further, in test [2], the binding mechanism entry was “two-step induced-fit mechanism”, the “Dissociation Half-Life” value is 6 min and the “time dependence of inhibition” value is listed as “slow binding inhibition”. Further, in test [2] (setting [7]), the koff is given as 1.9 ± 0.2 10^−3 s^−1 and the kon was 2.4 ± 0.3 10^3 M^−1s^−1. For the same compound, the Ki in test [2] (progress curve analysis) is 160 ± 30 nM. In test [3], this compound came in with a koff of 0.0038 s⁻¹ and a kon of 5700 M⁻¹ s⁻¹. Also, in test [4], the “constant α” value is 5.6, the type of inhibition entry was “noncompetitive inhibitor” and the Ki came out at 200 nM. For the same compound, the “β-value (interaction constant)” value in test [5] came to 4133197.
As to `C[C@H]1O[C@H](O[C@H]2[C@H](O)[C@@H](O)[C@@H](O[C@H]3[C@H](O)[C@@H](O)C(O)O[C@@H]3CO)O[C@@H]2CO)[C@H](O)[C@@H](O)[C@@H]1N[C@H]1C=C(CO)[C@@H](O)[C@H](O)[C@H]1O` (some centres unmarked) [Acarbose, acarbose], in test [2] (acarbose, Supplementary Table S2), the kon is on record as 2.1 ± 0.3 10^6 M^−1s^−1. Also, the “Dissociation Half-Life” value in test [6] (ln2 divided by koff (rapid dilution)) stood at 606 min. Further, the koff in test [6] (rapid dilution approach) is given as 1.9 ± 0.2 10^−5 s^−1.

Broadly, the IC50 is the point on the concentration scale where inhibition reaches its midpoint. Higher therefore signals lower potency. A word on the koff: it is a measure of how fast the partners let go of each other. Lower therefore signals slow dissociation. In general, kon refers to the rate constant with which the complex forms. By Ki is commonly meant a measure of affinity in units of concentration, obtained from inhibition or displacement.

The values are drawn from PMC6770063, “Utilizing the Combination of Binding Kinetics and Micro-Pharmacokinetics Link in Vitro α-Glucosidase Inhibition to in Vivo Target Occupancy” (Biomolecules, 2019).
